Like-named read-outs stand apart in the source and are kept apart here.
How the values were obtained:
[1] = parameters: method as in PMID 580398; conditions: animals and humans; cited from earlier work
pig kidney DDC = conditions: cited from earlier work
human DDC [2] = target: T1, human DDC (Homo sapiens, UniProt P20711); test: Assay of the inhibitory activity: spectrophotometric measurement of dopamine production by DDC; type: biochemical; conditions: for IC50: 0.1 mM L-Dopa, pH 7.4, 25°C, 9 concentrations in duplicate, read-out: IC50; for BE (binding efficiency): binding energy per unit of mass, from Ki and molecular weight in kDa; for Inhibition profile: type of inhibition from Lineweaver–Burk plots
T1 construct: made in house
T1 sequence (P20711 1-480): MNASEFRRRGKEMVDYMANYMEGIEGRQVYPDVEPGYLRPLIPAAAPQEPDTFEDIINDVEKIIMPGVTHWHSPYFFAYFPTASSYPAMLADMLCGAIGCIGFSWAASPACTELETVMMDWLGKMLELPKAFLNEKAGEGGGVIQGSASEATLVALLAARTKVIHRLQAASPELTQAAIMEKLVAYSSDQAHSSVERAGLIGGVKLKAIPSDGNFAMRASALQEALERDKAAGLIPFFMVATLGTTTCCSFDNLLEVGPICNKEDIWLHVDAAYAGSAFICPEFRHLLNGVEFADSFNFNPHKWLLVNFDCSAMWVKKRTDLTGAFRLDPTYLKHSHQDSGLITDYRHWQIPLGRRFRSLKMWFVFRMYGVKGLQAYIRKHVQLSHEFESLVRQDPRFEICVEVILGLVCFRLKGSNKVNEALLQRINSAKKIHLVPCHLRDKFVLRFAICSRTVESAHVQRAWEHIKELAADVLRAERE
Description: DDC activity was determined by measuring the production of dopamine with a spectrophotometric assay outlined by Sherald et al. and modified by Charteris and John. The reaction was carried out in 0.1 M potassium phosphate buffer pH 7.4 at 25°C for 1 min and stopped by inactivation of the enzyme at 100°C for 90 sec. The inhibitory assay was performed by measuring the decarboxylase activity of DDC with 50 nM enzyme, 0.1 mM L-Dopa, and 10 µM PLP in the presence and in the absence of a fixed amount of each compound. Various amounts of dimethyl sulphoxyde (DMSO) were necessary to solubilize the compounds in 100 mM potassium phosphate buffer, pH 7.4. […] Compounds were evaluated at 9 concentrations, and each in duplicate. IC50 values were derived by nolinear regression analysis. The related inhibition type of the compounds on human DDC was identified from Lineweaver–Burk plots, and Ki and/or Ki′ values for the inhibitors tested were calculated by the software Origin 7.0.

human DDC [3] = target: T1, human DDC; test: Enzyme-ligand equilibrium dissociation constant from visible CD signal changes of DDC; type: binding; conditions: change of 420 nm or 335 nm CD band, 100 mM potassium phosphate pH 7.4
Description: The equilibrium dissociation constant for each tested compound from DDC was determined by monitoring the decrease in the 420 nm CD signal of DDC (7 µM) in the presence of various ligand concentrations in 100 mM potassium phosphate buffer, pH 7.4. In any case, the maximun DMSO concentration in the mixture was kept lower than 1% (v/v). The KD values were obtained from the fitting of the data to the equation [drawing 3] where [E]t and [L]t represent the total concentrations of DDC dimer and ligand, respectively, Y refers to the visible CD signal change at 420 nm at the ligand concentration [L], and Ymax refers to the CD signal when all enzyme molecules are complexed with the ligand. CD measurements were performed with a Jasco J-710 spectropolarimeter using quartz cuvettes with 1 cm path length.

[4] = 50 nM enzyme, L-Dopa, 10 µM PLP, 0.1 M potassium phosphate pH 7.4, 25°C, from Lineweaver–Burk plots, read-out: Ki

| IC50 (human DDC [2]; 50 nM enzyme, 10 µM PLP) [nM] | Ki (human DDC [2]; [4]) [nM] | BE (binding efficiency) (human DDC [2]) | Inhibition profile (human DDC [2]) | Kd (human DDC [3]) [nM] | Ki (human DDC [2]; Ki, competitive inhibition, Table 4, third screening) [nM] | Compound | Metabolism before reaching the arterial blood [1] | DDC inhibition in words (pig kidney DDC) |
| --- | --- | --- | --- | --- | --- | --- | --- | --- |
| – | – | – | – | – | – | NC(CO)C(=O)NNCc1ccc(O)c(O)c1O (stereo not drawn) [benserazide, trihydroxybenzylhydrazine seryl derivative] | completely metabolized before it reaches the arterial blood | not a powerful DDC inhibitor |
| – | – | – | – | – | – | C[C@@](Cc1ccc(O)c(O)c1)(NN)C(=O)O [carbidopa, L-α-methyl-α-hydrazino-3,4-dihydroxyphenylpropionic acid] | – | powerful irreversible DDC inhibitors |
| – | – | – | – | – | – | NNCc1ccc(O)c(O)c1O [trihydroxybenzylhydrazine] | – | powerful irreversible DDC inhibitors |
| 15200 ± 1300 | 3700 ± 200 | 15.7 | competitive inhibitors | 2400 ± 100 | – | Oc1ccc(/C=N/n2c(S)nnc2-c2ccccc2Cl)cc1O [Compound 25] | – | – |
| 2400 ± 300 | 1800 ± 1100 | 18.4 | competitive inhibitors | 1500 ± 200 | – | Oc1ccc(/C=N/n2c(S)nnc2-c2ccccc2)cc1O [Compound 37] | – | – |
| 6200 ± 300 | – | 16,7 | – | 1500 ± 300 | 2000 ± 100 | COc1cccc(-c2nnc(S)n2/N=C/c2ccc(O)c(O)c2)c1 [Compound 45] | – | – |

Reference: paper PMC3285636, “Identification by Virtual Screening and In Vitro Testing of Human DOPA Decarboxylase Inhibitors” (PLoS ONE, 2012)
